Test results taken from ChEMBL document CHEMBL1137409, “Discovery of phenyl acetic acid substituted quinolines as novel liver X receptor agonists for the treatment of atherosclerosis” (J Med Chem, 2006).

Tests used:
[1] = biological target: T1, Peroxisome proliferator-activated receptor gamma (Homo sapiens, UniProt P37231)
T1 sequence (P37231 whole entry): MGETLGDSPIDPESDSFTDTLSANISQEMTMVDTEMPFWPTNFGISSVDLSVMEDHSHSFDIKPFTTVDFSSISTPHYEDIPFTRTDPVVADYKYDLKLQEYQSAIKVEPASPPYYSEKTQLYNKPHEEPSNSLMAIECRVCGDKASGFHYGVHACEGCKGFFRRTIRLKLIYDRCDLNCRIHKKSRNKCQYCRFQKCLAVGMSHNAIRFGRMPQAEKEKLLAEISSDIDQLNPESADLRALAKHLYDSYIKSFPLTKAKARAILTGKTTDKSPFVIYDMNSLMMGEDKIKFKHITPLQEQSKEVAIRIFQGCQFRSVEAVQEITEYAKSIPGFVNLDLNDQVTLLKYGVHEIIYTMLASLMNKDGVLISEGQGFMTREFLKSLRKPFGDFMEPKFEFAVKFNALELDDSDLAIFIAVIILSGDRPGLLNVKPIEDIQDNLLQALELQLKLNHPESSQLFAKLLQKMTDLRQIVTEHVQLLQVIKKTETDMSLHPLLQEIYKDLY

[2] = biological target: T2, Peroxisome proliferator-activated receptor delta (Homo sapiens, UniProt Q03181); test: Agonist activity at human PPAR delta by GAL4 transactivation assay; format: functional
T2 sequence (Q03181 whole entry): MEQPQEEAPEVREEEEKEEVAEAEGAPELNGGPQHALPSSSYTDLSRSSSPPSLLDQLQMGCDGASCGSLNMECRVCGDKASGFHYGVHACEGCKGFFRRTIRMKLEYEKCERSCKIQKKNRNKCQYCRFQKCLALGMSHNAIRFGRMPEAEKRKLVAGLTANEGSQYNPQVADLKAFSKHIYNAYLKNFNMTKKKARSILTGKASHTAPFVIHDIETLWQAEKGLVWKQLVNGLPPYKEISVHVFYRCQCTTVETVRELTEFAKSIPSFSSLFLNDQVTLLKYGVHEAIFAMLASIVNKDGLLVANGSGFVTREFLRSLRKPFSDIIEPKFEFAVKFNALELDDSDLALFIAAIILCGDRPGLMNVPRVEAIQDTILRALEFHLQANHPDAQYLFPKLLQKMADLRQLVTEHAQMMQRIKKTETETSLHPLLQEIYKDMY

[3] = Half life in human liver microsomes; format: ADME, Microsome
Huh-7 [4] = test: Induction of SREBP1c expression in Huh7 cell line relative to TO901317; format: functional, Homo sapiens
THP-1 [5] = test: Induction of ABCA1 expression in THP1 cell line relative to TO901317; format: functional, Homo sapiens
[6] = biological target: T3, Peroxisome proliferator-activated receptor alpha (Homo sapiens, UniProt Q07869); test: Agonist activity at human PPAR alpha by GAL4 transactivation assay; format: functional
T3 sequence (Q07869 whole entry): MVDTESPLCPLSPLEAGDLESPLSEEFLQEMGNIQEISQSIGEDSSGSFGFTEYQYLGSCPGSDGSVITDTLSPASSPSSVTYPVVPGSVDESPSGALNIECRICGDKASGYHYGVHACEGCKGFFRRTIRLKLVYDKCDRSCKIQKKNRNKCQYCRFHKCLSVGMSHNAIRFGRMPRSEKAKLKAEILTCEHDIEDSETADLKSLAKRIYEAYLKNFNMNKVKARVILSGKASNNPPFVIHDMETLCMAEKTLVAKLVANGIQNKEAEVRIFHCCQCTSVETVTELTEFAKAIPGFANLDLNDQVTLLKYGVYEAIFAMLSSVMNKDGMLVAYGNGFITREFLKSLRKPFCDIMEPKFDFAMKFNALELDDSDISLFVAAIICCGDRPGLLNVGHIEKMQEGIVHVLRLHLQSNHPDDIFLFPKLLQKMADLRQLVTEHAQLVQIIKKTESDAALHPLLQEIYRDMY

THP-1 [7] = test: Induction of ABCA1 expression in THP1 cell line; format: functional, cell-based; conditions: Homo sapiens
Huh-7 [8] = test: Induction of SREBP1c expression in Huh7 cell line; format: functional, cell-based; conditions: Homo sapiens
[9] = Cmax in C57 mouse at 10 mg/kg, po; format: ADME, organism-based; set-up: dose 10 mg/kg, route oral; conditions: in vivo
[10] = Bioavailability in C57 mouse at 10 mg/kg, po; format: ADME, organism-based; conditions: in vivo
Mus musculus = test: Reduction of atherosclerotic lesion of thoracic aorta in LDLr knockout C57BL/6 mouse at 10 mg/kg/day, po after 8 weeks relative to control; format: functional; set-up: scale not given: the % may be the effect or the level left
[11] = biological target: T4, Oxysterols receptor LXR-beta (Homo sapiens, UniProt P55055)
T4 sequence (P55055 whole entry): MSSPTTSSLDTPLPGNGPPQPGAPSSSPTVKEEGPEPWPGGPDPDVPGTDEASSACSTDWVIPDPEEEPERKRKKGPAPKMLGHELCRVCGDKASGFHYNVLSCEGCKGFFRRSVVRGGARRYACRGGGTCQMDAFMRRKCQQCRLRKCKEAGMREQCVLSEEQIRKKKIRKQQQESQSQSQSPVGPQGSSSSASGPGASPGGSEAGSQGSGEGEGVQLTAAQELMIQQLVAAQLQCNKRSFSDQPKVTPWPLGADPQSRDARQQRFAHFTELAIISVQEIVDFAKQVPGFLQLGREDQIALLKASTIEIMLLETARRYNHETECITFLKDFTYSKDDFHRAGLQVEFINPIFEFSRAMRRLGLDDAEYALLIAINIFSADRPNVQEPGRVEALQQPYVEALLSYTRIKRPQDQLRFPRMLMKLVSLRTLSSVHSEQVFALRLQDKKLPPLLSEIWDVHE

[12] = Terminal half life in C57 mouse at 10 mg/kg, po; format: ADME, organism-based; set-up: dose 10 mg/kg, route oral; conditions: in vivo, read-out: beta t1/2 (converted)
[13] = Tmax in C57 mouse at 10 mg/kg, po; format: ADME, organism-based; set-up: dose 10 mg/kg, route oral; conditions: in vivo
THP-1 [14] = test: Stimulation of cholesterol efflux in THP1 cell line; format: functional, cell-based; conditions: Homo sapiens
[15] = biological target: T5, Oxysterols receptor LXR-alpha (Homo sapiens, UniProt Q13133); test: Agonist activity at human LXR alpha expressed in Huh7 cells by GAL4 transactivation assay; format: functional, cell-based, Huh-7
T5 sequence (Q13133 whole entry): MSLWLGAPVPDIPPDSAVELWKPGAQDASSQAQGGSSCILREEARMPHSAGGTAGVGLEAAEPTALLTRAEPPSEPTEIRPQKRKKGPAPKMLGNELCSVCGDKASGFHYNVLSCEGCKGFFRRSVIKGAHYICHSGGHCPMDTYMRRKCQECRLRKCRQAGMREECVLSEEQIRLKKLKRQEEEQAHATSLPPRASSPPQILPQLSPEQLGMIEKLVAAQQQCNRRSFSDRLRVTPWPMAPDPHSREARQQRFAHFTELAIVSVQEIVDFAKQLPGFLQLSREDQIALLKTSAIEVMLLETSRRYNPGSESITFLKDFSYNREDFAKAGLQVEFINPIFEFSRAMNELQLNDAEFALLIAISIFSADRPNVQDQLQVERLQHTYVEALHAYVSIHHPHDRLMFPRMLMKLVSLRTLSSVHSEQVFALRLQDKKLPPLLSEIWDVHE

[16] = biological target: T5, Oxysterols receptor LXR-alpha
[17] = biological target: T4, Oxysterols receptor LXR-beta; test: Agonist activity at human LXR beta expressed in Huh7 cells by GAL4 transactivation assay; format: functional, cell-based, Huh-7
[18] = AUC (0-infinity) in C57 mouse at 10 mg/kg, po; format: ADME, organism-based; set-up: time infinity, dose 10 mg/kg, route oral; conditions: plasma
[19] = biological target: T4, Oxysterols receptor LXR-beta; remark: listed apart in the source
[20] = Half life in human liver microsomes at 20 uM; format: ADME, Microsome

SMILES: O=C(O)Cc1ccc(COc2cccc(-c3c(Cc4ccccc4)cnc4c(C(F)(F)F)cccc34)c2)cc1
- EC50 [1]: 0.68 µM
- EC50 [2]: 0.627 µM
- half-life [3]: 107 min
- Efficacy (Huh-7 [4]): 106%
- Efficacy (THP-1 [5]): 172%
- EC50 [6]: 1.31 µM
- EC50 (THP-1 [7]): 0.055 µM
- EC50 (Huh-7 [8]): 0.045 µM

SMILES: O=C(O)Cc1ccc(CNc2cccc(-c3c(Cc4ccccc4)cnc4c(C(F)(F)F)cccc34)c2)cc1
- Cmax [9]: 3740 ng/mL
- bioavailability [10]: 67%
- Activity (Mus musculus): 45%
- EC50 [1]: 0.32 µM
- EC50 [11]: 0.033 µM
- half-life [12]: 78 min
- EC50 [2]: 1.32 µM
- Tmax [13]: 30 min
- EC50 (THP-1 [14]): 0.037 µM
- EC50 [15]: 0.16 µM
- Efficacy (Huh-7 [4]): 73%
- Efficacy (THP-1 [5]): 151%
- IC50 [16]: 0.0076 µM
- EC50 [17]: 0.087 µM
- EC50 [6]: 1.3 µM
- EC50 (THP-1 [7]): 0.033 µM
- EC50 (Huh-7 [8]): 0.015 µM
- AUC(0-inf) [18]: 4440 ng·h/mL

SMILES: COC(=O)c1ccc(COc2cccc(-c3c(C(=O)c4ccccc4)cnc4c(C(F)(F)F)cccc34)c2)cc1
- EC50 [11]: 0.296 µM
- IC50 [19]: > 1 µM
- IC50 [16]: > 1 µM

SMILES: O=C(O)Cc1ccc(COc2cccc(-c3c(C(=O)c4ccccc4)cnc4c(C(F)(F)F)cccc34)c2)cc1
- half-life at 20 µM [20]: 3.5 min

SMILES: O=C(O)Cc1cccc(OCCCN(Cc2cccc(C(F)(F)F)c2Cl)CC(c2ccccc2)c2ccccc2)c1
- Activity (Mus musculus): 27%
- EC50 [11]: 0.41 µM
- IC50 [19]: 0.012 µM
- IC50 [16]: 0.1 µM
